Experiments:
BRC1 = assay: qRT-PCR of strigolactone-responsive gene BRC1 in seedlings; assay type: in vivo, Arabidopsis; details: 10-day-old seedlings, 1 μM (+)-GR24 alone, 24 h
AtD14-GFP fusion protein = target: T1, AtD14-GFP fusion protein (Arabidopsis thaliana, UniProt Q9SQR3); assay: AtD14-GFP degradation in 35S::AtD14-GFP/atd14-1 seedlings; assay type: in vivo; details: 1 μM (+)-GR24 alone, 24 h
T1 sequence (Q9SQR3 1-267): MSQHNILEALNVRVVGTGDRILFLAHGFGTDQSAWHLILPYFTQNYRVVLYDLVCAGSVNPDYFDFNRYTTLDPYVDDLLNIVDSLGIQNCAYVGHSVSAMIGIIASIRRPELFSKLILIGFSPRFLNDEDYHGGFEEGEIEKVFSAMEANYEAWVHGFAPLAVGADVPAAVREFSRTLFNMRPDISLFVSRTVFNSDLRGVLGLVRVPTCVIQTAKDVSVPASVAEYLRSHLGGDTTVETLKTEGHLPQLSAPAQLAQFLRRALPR

STH7 = assay: qRT-PCR of strigolactone-responsive gene STH7 in seedlings; assay type: in vivo, Arabidopsis; details: 10-day-old seedlings, 1 μM (+)-GR24 alone, 24 h

## (+)-GR24
BRC1
  expression of BRC1: increased
AtD14-GFP fusion protein
  GFP signal in hypocotyl (AtD14-GFP): striking reduction
STH7
  expression of STH7: increased
